Source: US20100069254A1, “Cell Culture Model for Demyelination/Remyelination” (priority 2008, published 2010)
“Also recorded” adds a separate entry of the source.

Key:
Xenopus tadpoles = settings: 0.1 to 0.2 μg/ml in tadpole bins; cited from earlier work
[1] = test system: oligodendrocytes and neurons; assay: MTS metabolic activity assay (CellTiter 96 AQueous One) of demyelinated cell cultures
Experimental: Metabolic activity of cells was then measured by an MTS assay as described in the text.
Monitoring of metabolic activity (CellTiter 96® AQueous One; Promega) is used to identify concentrations that caused a minimum amount of damage to the oligodendrocytes and neurons. In this assay a tetrazolium compound (MTS) and an electron coupling reagent (phenazine ethosulfate) are used for calorimetric detection of metabolic activity. MTS is bioreduced, presumably by NADPH or NADH, into a colored formazan product that is soluble in tissue culture medium and can be detected spectrophotometrically. Absorbance at about […] is proportional to metabolic activity and is commonly used to monitor the number of living cells in culture.

animals = settings: injection of 2 μl of a 1% solution; cited from earlier work

Row | Molecule | demyelination in Xenopus tadpoles (Xenopus tadpoles) | effect on cellular metabolism / damage to neural or glial cell bodies (metabolic assay) ([1]; 10 μg/ml, 10 minute exposure) | local demyelination in animals (animals) | cellular damage (metabolic assay) ([1]; relatively low concentrations (0.1%), 10 minutes)
1 | Oc1c(Cl)cc(Cl)c(Cl)c1Cc1c(O)c(Cl)cc(Cl)c1Cl [hexachlorophene] | cause demyelination | without an observable effect on cellular metabolism; also recorded: mild enough to prevent significant damage to the neural or glial cell bodies |  | 
2 | lysophosphatidylcholine |  |  | cause local demyelination | significant cellular damage
